According to patent US20150209354A1, “CASEIN KINASE 1 INHIBITORS FOR THE TREATMENT OF B-CELL CHRONIC LYMPHOCYTIC|LEUKEMIA” (MASARYKOVA UNIVERZITA, priority 2012, published 2015):
Entries after “also recorded” stand apart in the source; their conditions may differ.

How the values were obtained:
primary CLL cells [1] = experiment: Rate of apoptosis of primary CLL cells by mitochondrial membrane potential (TMRE/calcein flow cytometry); type: cell-based, human; conditions: 100 μM D4476, 20 hours pre-treatment; TMRE and calcein staining; vs DMSO
Description: (§1) FIG. 3: CK1 controls the migration of CLL cells in vivo. (A) Layout of the experiment: CLL cells were obtained by purification from the samples of fresh blood from patients, stimulated and stained in vitro using green calcein. They were subsequently intraperitoneally injected to NSG mice. After 24 hours the murine tissues were examined for the presence of calcein-positive CLL cells using flow-cytometry (refer to the G1 cut-out in the typical dot plot distribution). (B) The rate of apoptosis in primary CLL cells after adding DMSO/D4476 (CK1 inh. I) was determined by the analysis of membrane potential of mitochondria using flow-cytometry while using tetramethylrhodamine ethyl ester (TMRE) stained with green calcein dye. […] The charts show the ratio of the CLL cells (the quantity of positive cells/total quantity of cells in the organ) treated by DMSO or D4476 (CK1 inh. I) that were obtained from the spleen (Ci), liver (Cii), and bone marrow (Ciii) of transplanted mice. […]
Freshly isolated human CLL lymphocytes (25×10^6 from the patient) were pre-treated for 20 hours with a CK1 inhibitor (100 μM, D4476, Calbiochem), and dimethylsulfoxide (DMSO, Sigma-Aldrich) as control. […] Samples of spleen, liver, and femoral bone marrow of mice were taken 24 hours after the injection and analyzed. Migration of calcein-positive CLL cells to these tissues was determined by FACS analysis (FACScalibur). […]

primary CLL cells [2] = experiment: Migration of pre-treated primary CLL cells into tissues of transplanted NSG mice (FACS of calcein-positive cells); type: in vivo; conditions: cells pre-treated 20 hours with 100 μM D4476; intraperitoneal injection; tissues analysed after 24 hours; vs DMSO
Description: as §1
Freshly isolated human CLL lymphocytes (25×10^6 from the patient) were pre-treated for 20 hours with a CK1 inhibitor (100 μM, D4476, Calbiochem), and dimethylsulfoxide (DMSO, Sigma-Aldrich) as control. […] Samples of spleen, liver, and femoral bone marrow of mice were taken 24 hours after the injection and analyzed. Migration of calcein-positive CLL cells to these tissues was determined by FACS analysis (FACScalibur).

MEC1 cells [3] = experiment: Chemokine-controlled transendothelial invasion of MEC1 cells through HUVEC layer (Transwell); type: cell-based, human; conditions: D4476 100 μM overnight, HUVEC-covered Transwell
Description: FIG. 2: Transendothelial invasiveness of the MEC1 cells was tested in the Transwell migration chamber in an arrangement where the upper chamber was covered with one layer of HUVEC endothelial cells. The rate of invasiveness (determined as the migration index) of the MEC1 cells was analyzed in the presence of the chemokine CCL19, Wnt5a, or in combination of both substances. The positive effect of CCL19 to the transendothelial migration of MEC1 was inhibited by addition of D4476 (CK1 inh. I). Statistical significance was tested using One-way ANOVA test and Tukey post-hoc test (***p<0.001). Each experiment was independently repeated three-times.
In the complex environment of the human body, cells react to the attractants and have to pass through extra-cellular matrix or endothelial barrier, which is a process known as invasion. […]
(§2) Into the upper insert of HTS Transwell® 96-well plates (Corning Incorporated, Mexico) with polycarbonate membranes with the pore size of 5.0 μm, covered with HUVEC (human umbilical vein endothelial cells monolayer), 0.5×10^6 MEC1 cells were seeded. […] The migration to chemokine was then analyzed using the Coulter Counter instrument (model FN, Coulter Electronics, Fla., USA). The migration index was calculated as the number of cells (treated or non-treated) migrating to the chemokine divided by the number of cells migrating only to the control medium.

MEC1 cells [4] = experiment: Transwell migration of MEC1 cells to chemokines CCL19 and CCL21; type: cell-based, human; conditions: D4476 100 μM overnight; CCL19 and CCL21 200 ng/ml; vs DMSO control
Description: FIG. 1: Migration of MEC1 cells which represents an in-vitro CLL model was investigated in the presence of chemokines CCL19 and CCL21 (200 ng/ml) using Transwell migration chamber. The rate of migration is expressed as a migration index. The MEC1 migration triggered by the chemokines CCL21 and CCL19 is blocked by CK1 inhibitors—D4476 (CK1 inh. I; 100 μM) and PF670462 (CK1 inh. II; 50 μM). The values in the FIGS. 1A and 1B represent the average and the standard error. Statistical significance was tested using One-way ANOVA and Tukey post-hoc test (*p<0.05, **p<0.01, ***p<0.001).
In this example, the MEC1 cell line was used, which is a well-defined cell line obtained from a CLL patient in a pro-lymphocytic transformation. The MEC1 line is used as a transplantation model of CLL. […]
as §2, with “μm,” for “μm, covered with HUVEC (human umbilical vein endothelial cells monolayer),”

NC(=O)c1ccc(-c2nc(-c3ccc4c(c3)OCCO4)c(-c3ccccn3)[nH]2)cc1 [D4476]
rate of apoptosis in primary CLL cells (primary CLL cells [1]): does not alter the rate of apoptosis; also recorded: without an increase of cell apoptosis being detected | migration of CLL cells to the spleen, liver and bone marrow (primary CLL cells [2]): reduced | CCL19-induced transendothelial migration (invasiveness, migration index) of MEC1 cells (MEC1 cells [3]): inhibited | MEC1 migration (migration index) triggered by the chemokines CCL21 and CCL19 (MEC1 cells [4]): blocked
